Tests used:
[1] = Stability of hair levels among individuals on stable doses of opioids, visit 1 vs visit 2 (excluding PRN dose); assay type: in vivo, human; settings: hair level at visit 1 vs hair level at visit 2
Text: The study includes 2 study visits approximately 60 days apart. The second visit allowable range is between 45 and 75 days after the first visit. Patients submit hair and urine samples at both study visits
The enrolled subjects are current, past or new users of prescribed opioid analgesic regimens in either (i) the past 30 days, (ii) the past 31 to 120 days or were not previously prescribed an opioid regimen. All opioid analgesic regimens are self-reported.
E. Assessment of the Stability of Hair Levels Among Individuals on Stable Doses of Opioids (Excluding PRN Dose)
Also shown in Table 1B and the graphs is data from a sub-population of tested subjects, which excluded patients where the start date of the regimen was within the 90 day window of the enrollment date.

[2] = Relationship between prescribed opioid dose and hair levels (excluding PRN dose); assay type: in vivo, human
[3] = excluding patients whose prescription started less than 90 days before enrollment (n = 361)

Structure (SMILES)	R (correlation coefficient) ([1]; all interim sample (n = 411))	R-Squared ([1]; all interim sample (n = 411))	R (correlation coefficient) [1, 3]	R-Squared [1, 3]	total variation in the hair levels explained by the linear relationship between total daily dose and hair levels (coefficient of determination) [2]
COc1ccc2c3c1O[C@H]1C(=O)CC[C@@]4(O)[C@@H](C2)N(C)CC[C@]314 [Oxycodone, oxycodone]	0.959	0.920	0.960	0.922	approximately 55%
COc1ccc2c3c1O[C@H]1C(=O)CC[C@H]4[C@@H](C2)N(C)CC[C@]314 [Hydrocodone, hydrocodone]	0.880	0.775	0.883	0.781	–
CN1CC[C@]23c4c5ccc(O)c4O[C@H]2[C@@H](O)C=C[C@H]3[C@H]1C5 [Morphine, morphine]	0.789	0.623	0.974	0.949	–

From patent US20160011220A1, “Systems and Methods to Quantify Analytes in Keratinized Samples” (PURDUE PHARMA L.P., priority 2012, published 2016)
